Data reported in patent US20050267195A1, “Drug composition for blood sugar control” (priority 2002, published 2005).
Where a name gives a salt, the structure may show the parent alone.

Key:
[1] = test system: type II diabetic patients; assay: Clinical study in type II diabetic patients; format: in vivo, human
Protocol: Using the pharmaceutical composition described in Example 1, a clinical study was conducted in type II diabetic patients under the following conditions.
Test drug and Mode of administration: Every patient orally administered either of a combination selected from the following combination groups (one tablet from each) three times a day just before meals (within 5 minutes before starting meal): • The present invention group: (1)+(4) • Positive control group: (2)+(3) • Positive control group: (3)+(4) • (1) a tablet comprising 10 mg of mitiglinide calcium salt hydrate; • (2) a tablet comprising 0.2 mg of voglibose (chemical name: (+)-1L-[1(OH),2,4,5/3]-5-[2-hydroxy-1-(hydroxymethyl)ethyl]amino-1-C-(hydroxymethyl)-1,2,3,4-cyclohexaneterol); • (3) a placebo tablet of mitiglinide calcium salt hydrate not containing any active ingredient; and • (4) a placebo tablet of voglibose not containing any active ingredient. • Treatment period: 12 weeks • Observation item: The following items were measured before administration, at a certain fixed time after the start of administration and at the completion of administration, and their changes were calculated, or the frequency of adverse drug reactions was calculated, and then evaluated.

[2] = test system: healthy male adults; assay: Clinical study on administration timing; format: in vivo, human
Protocol: Administration timing before taking a meal was evaluated in healthy male adults. Used test drugs were a tablet comprising 10 mg of mitiglinide calcium salt hydrate and a placebo tablet. The tablet comprising 10 mg of mitiglinide calcium salt hydrate was administered at 0.5 min, 5 min, 10 min or 30 min before starting meal (Positive group), while the placebo tablet was administered at 0.5 min before starting meal. After administration, blood glucose levels were measured at starting meal and evaluated.

[3] = in comparison with voglibose and placebo

O=C(O)[C@H](CC(=O)N1C[C@H]2CCCC[C@H]2C1)Cc1ccccc1 [mitiglinide calcium salt hydrate, (+)-monocalcium bis[(2S,3a,7a-cis)-α-benzylhexahydro-γ-oxo-2-isoindolinebutyrate] dihydrate]
effect on HbA1C value (in words) ([1]; after 4 weeks after the start of administration, in comparison with voglibose and placebo): significantly lowered HbA1C value | frequencies of hypoglycemic symptoms and gastrointestinal disorders (in words) ([1]; human, in vivo): decreased the frequencies of hypoglycemic symptoms and gastrointestinal disorders | effect on 1 hour and 2 hour values of postprandial plasma glucose (PPG) (in words) [1, 3]: significantly lowered 1 hour and 2 hour values of postprandial plasma glucose (PPG) | effect on early morning fasting plasma glucose (FPG) (in words) [1, 3]: significantly lowered early morning fasting plasma glucose (FPG) | blood glucose level at starting meal (in words) ([2]; administered at 30 minutes before starting meal): notably declined | blood glucose level at starting meal (in words) ([2]; administrated within 10 minutes before starting meal): able to maintain good blood glucose level

OCC(CO)N[C@H]1C[C@](O)(CO)[C@@H](O)[C@H](O)[C@H]1O [voglibose, (+)-1L-[1(OH),2,4,5/3]-5-[2-hydroxy-1-(hydroxymethyl)ethyl]amino-1-C-(hydroxymethyl)-1,2,3,4-cyclohexaneterol, reference compound]
Change in 2 hour value of PPG, mean value ([1]; final evaluation, three times a day just before meals, 12 weeks): -5.1 mg/dL | effect on HbA1C value (in words) ([1]; in comparison with placebo): significantly lowered HbA1C value
